Here are results for 23 compounds from PubChem BioAssay (NCI).

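Exposure lasted 48 hours, with cells grown in 96-well plates and compounds tested at five concentrations. GI50: concentration for 50% inhibition of growth. At the TGI there is no net growth.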

Common to all, as to test: inhibition of tumour cell growth, NCI panel, 48 h
The subject of assay [1] is IGROV1 ovarian.
Assay [2] concerns SK-MEL-28 melanoma.
The subject of assay [3] is DU-145 prostate.
Assay [4] has as its system MDA-MB-231 breast.
Assay [5] concerns CAKI-1 renal.
Assay [6] deals with HT29 colon.
For assay [7], the system named is SR leukemia.
Assay [8] deals with CCRF-CEM leukemia.
Assay [9] has as its system MDA-N.

Consider `COc1ccc(C(=O)/C=C/SC(=NC#N)SC)cc1`, for which the TGI in [1] is 57.3 µM; in [2], 96.7 µM; in [3], 53.5 µM; in [4], 33.2 µM; in assay [5], 54.8 µM; in assay [6], 49.5 µM. Besides, the TGI in assay [7] was 19.6 µM.

In the case of `NC(=O)C1CCN(Cc2c(Cl)c(Cl)c(CN3CCC(C(N)=O)CC3)c(Cl)c2Cl)CC1`, the TGI was > 100 µM in [2]; > 100 µM in [3]; 96 µM in assay [4]; > 100 µM in assay [8]; > 100 µM in [5]; > 100 µM in assay [6]. In addition, in [7], the TGI was > 100 µM.

In the case of `N#CCCN(CCC#N)c1ccc(C(N=Nc2ccccc2)=Nc2ccc(F)cc2)cc1`, the TGI in assay [1], in assay [2], in assay [3], in assay [4], in [9] and in assay [5] was > 100 µM in each case. In addition, the TGI in assay [6] and in assay [7] was > 100 µM in each case.

On to `O=C1c2cc3c(cc2-c2c1c1ccc(Cl)cc1c(=O)n2CCCn1ccnc1)OCO3`, for which the GI50 in [1] is 0.0656 µM; in assay [2], 0.158 µM; in assay [3], < 0.01 µM; in assay [4], 0.959 µM; in assay [8], < 0.01 µM; in assay [5] it was < 0.01 µM. The GI50 in assay [6] was 0.0174 µM; in assay [7] it was < 0.01 µM. The TGI is > 100 µM in assay [1]; > 100 µM in assay [2]; 0.282 µM in assay [3]; > 100 µM in [4]; 10.5 µM in assay [8]; > 100 µM in assay [5]. Moreover, the figures for the TGI in assay [6] and in assay [7] were > 100 µM and 0.0677 µM, respectively.

In the case of `O=c1c2ccc(Cl)cc2oc2c(CNc3ccc(S(=O)(=O)Nc4ncccn4)cc3)cccc12`, the TGI in assay [1], in [2], in assay [4], in [8], in assay [9] and in assay [5] was > 100 µM throughout. Further, the TGI in assay [6] and in assay [7] was > 100 µM throughout.

On to `CC(C)=C/C(CC(O)(C(F)(F)F)C(F)(F)F)=N\O`, for which the TGI in assay [1], in assay [2], in assay [3], in assay [4], in assay [8] and in assay [6] was > 100 µM each time. In [7], the TGI was > 100 µM.

Turning to `C/C(=C\CSCC(N)C(=O)O)CC/C=C(\C)CNc1ccccc1` (centres undefined), the TGI in assay [1], in assay [2], in assay [3], in [4], in assay [5] and in assay [6] was > 100 µM in each case. For the same compound, the TGI in assay [7] was > 100 µM.

`CCOC(=O)c1c(SCc2cc(=O)[nH]c(=O)[nH]2)n(-c2ccccc2)c(=S)n(-c2ccccc2)c1=O`: the TGI in assay [1], in assay [2], in assay [3], in [4], in assay [8] and in [9] was > 100 µM each time. In addition, the TGI in assay [5] and in assay [6] was > 100 µM throughout.

Regarding `CCN(CC)CCCCNc1c2ccc(Cl)cc2nc2ccc(OC)cc12`, the GI50 was 0.777 µM in assay [1]; 1.71 µM in [2]; 0.34 µM in assay [3]; 0.478 µM in assay [4]; 0.524 µM in assay [8]; 1.14 µM in assay [5]. Besides, the GI50 in [6] was 0.141 µM; in assay [7], 0.207 µM. For the same compound, the TGI in assay [1] was found to be 8.61 µM; in assay [2] it was 3.2 µM; in assay [3] it was 1.62 µM; in [4], 2.11 µM; in assay [8] it was 5.3 µM; in [5], 3.76 µM. The results for the TGI in assay [6] and in assay [7] were 1.27 µM and 1.53 µM, respectively.

As to `C[As+](C)(c1ccc(Br)c([N+](=O)[O-])c1)c1ccc(Br)c([N+](=O)[O-])c1.O=[N+]([O-])O`, the TGI is > 100 µM in assay [1]; 76.8 µM in [2]; > 100 µM in assay [3]; > 100 µM in [4]; > 100 µM in assay [9]; > 100 µM in assay [5]. The TGI in assay [6] and in assay [7] was > 100 µM each time.

Consider `CCN(CC)C(=S)N/N=C(/c1ccccc1)c1ccccn1`, for which the TGI in assay [1] was 6.72 µM; in [2], > 79.7 µM; in [3] it was > 65.9 µM; in [8] it was 1.09 µM; in [9] it was 26.1 µM; in [5], 11 µM. The figures for the TGI in [6] and in assay [7] were > 40.1 µM and 0.953 µM, respectively.

`CC(=N/NC(=S)N(C)C)/C(=N\NC(=S)N(C)C)c1ccccc1`: the TGI in assay [1] was 3.36 µM; in [2], 4.03 µM; in assay [3] it was 10.6 µM; in assay [4] it was > 23.8 µM; in [9], 8.58 µM; in [5], 6.96 µM. In [6], this compound came in with a TGI of 9.46 µM.

`CC1=C(C)SC(=C2Sc3c(n(C)c(=O)n(C)c3=O)S2)S1`: the TGI is > 100 µM in [1]; > 100 µM in [2]; > 100 µM in assay [3]; 75.3 µM in assay [4]; > 100 µM in assay [8]; > 100 µM in [9]. The TGI in [5] and in assay [6] was > 100 µM throughout.

In the case of `O=C(C(=C(I)I)c1ccccc1)c1ccccc1`, the TGI in [1] is 44.4 µM; in assay [2] it was 94.7 µM; in assay [8], 51.7 µM; in assay [9], 62.1 µM; in [5], > 100 µM; in assay [6], > 100 µM. The TGI in [7] is 93.6 µM.

For `CCC1(CC)C(=O)N(C(=O)c2cc(OC)c(OC)c(OC)c2)N(C(=O)c2cc(OC)c(OC)c(OC)c2)C1=O`, the TGI in [1], in [2], in assay [3], in assay [4], in assay [8] and in assay [9] was > 50 µM each time. In addition, the TGI in assay [5] and in [6] was > 50 µM throughout.

Take `Cc1nc2c(=O)n(-c3ccccc3)c(=O)n(-c3ccccc3)c2o1`: the TGI in [1], in assay [4], in assay [8], in [9], in assay [5] and in [6] was > 100 µM each time. Further, in assay [7], the TGI was > 100 µM.

With `CC(C)(C)/C(O)=C\c1nc2cc(F)c(F)cc2[nH]c1=O`, the TGI in assay [1] was > 100 µM; in assay [2], > 100 µM; in assay [3] it was 57 µM; in assay [4], 71.7 µM; in [8], > 100 µM; in [5] it was > 100 µM. In addition, the TGI in [6] and in [7] was > 100 µM in each case.

Turning to `COc1cc2c(c(OC)c1)[C@H](C)N(Cc1ccccc1)C(C)C2` (some centres undefined), the TGI in [1], in [2], in assay [3], in assay [4], in [8] and in assay [5] was > 100 µM in each case. For the same compound, the results for the TGI in [6] and in assay [7] were 75.2 µM and > 100 µM, respectively.

Turning to `CN(C)/N=N/c1nc2c(c(=O)n(C)c(=O)n2C)n1CC1CO1` (centres undefined), the TGI in assay [1] is 29.9 µM; in [2] it was 59.7 µM; in assay [3] it was 37.5 µM; in assay [4], 68.1 µM; in assay [8], > 100 µM; in [9], 46.7 µM. Moreover, the TGI was determined as 38.9 µM in assay [5] and 35.1 µM in [6].

For `N#Cc1c(-c2ccc([N+](=O)[O-])cc2)c(C#N)c(=O)n(NS(=O)(=O)c2ccccc2)c1O`, the TGI in assay [1], in [2], in assay [4], in assay [8], in [9] and in assay [5] was > 100 µM throughout. Besides, the TGI in assay [6] is > 100 µM.

As to `CN(C)CCNCCCNc1c2ccccc2nc2cccc([N+](=O)[O-])c12`, the TGI is 0.173 µM in assay [1]; 0.442 µM in assay [2]; 0.0525 µM in [3]; 0.0832 µM in assay [4]; < 0.0207 µM in assay [8]; 0.331 µM in assay [5]. Besides, in [6], the TGI is < 0.0277 µM.

Regarding `C=C1[C@@H]2CCC3[C@]4(C)C(CC[C@@]5(C)C(=O)O[C@H](O)[C@@H]45)[C@H](O)[C@]3(C2)[C@H]1OC1OC(CO)C(O)C(O)C1O` (some centres undefined), the TGI in assay [1], in [2], in assay [3], in [4], in assay [9] and in assay [6] was > 50 µM each time.

Regarding `O=C(c1ccco1)N(C(=O)N1CCC(c2ccccc2)CC1)c1ccccc1`, the TGI in assay [1], in assay [2], in assay [3], in assay [4], in [8] and in [9] was > 100 µM each time. The TGI in [5] and in [6] was > 100 µM throughout.
